Where a SMILES comes first, the peptide text is derived from it.
Columns and labels:
B. cenocepacia AU0756 = tested on: B. cenocepacia AU0756
Experimental: We proceeded to test the antimicrobial activity of the selected variants against two clinical isolates of the Bcc, B. cenocepacia AU0756 and B. cenocepacia AU24362, in broth microdilution assays. […] We revisited these measurements using broth microdilution assays following the Clinical & Laboratory Standards Institute (CLSI) standard.
Broth microdilution assays of the ubonodin variants were conducted using B. cenocepacia AU0756 and B. cenocepacia AU24362 with guidelines provided by the Clinical & Laboratory Standards Institute (CLSI).

[1] = tested on: RNA polymerase (RNAP) in E. coli MC1061; test: High-throughput growth-based screen with NGS (enrichment value) for RNA polymerase inhibition; type: cell-based; set-up: key to Experimental observation (enrichment observed in the screen): Dropout: Many variants inhibit RNAP so strongly that they cannot be detected by NGS after IPTG induction (referred to as dropout variants); conditions: Table S4; variants whose MICs were tested
Experimental: The single mutant library was analyzed by NGS at multiple stages of sample preparation (Figure 2A) to track its evolution throughout the screen. Specifically, the frequency of each possible aa variant was computed at each stage by summing up counts for each distinct translated sequence and dividing by the total number of counts for all variants (eq S1, SI Methods). Since cells expressing an RNAP-inhibiting ubonodin variant will have growth defects relative to cells with a nontoxic variant, RNAP-inhibiting ubonodin variants are expected to decrease in frequency throughout the screen.
First, the naïve library (digested PCR products) was sequenced. These digested PCR products were cloned into the pUboABC backbone and transformed into a recA^– cloning strain. This plasmid library was sequenced again to capture any changes upon transformation of the library into E. coli. The change between the naïve library and the cloning transformation library was minimal (Figure S6A). This plasmid library was transformed into the screening strain MC1061, and the plasmid from resulting colonies was also sequenced. The library in MC1061 was grown up en masse in liquid culture to mid log phase, and a portion of the culture was plated. These colonies were scraped, then the plasmid was isolated and sequenced. Finally, the liquid culture was induced with IPTG, after which a portion of the culture was plated and the plasmid was isolated and sequenced. It is key to note that all samples from liquid cultures were plated prior to sequencing to ensure that only viable cells were sequenced. […] The rationale for sequencing at these five different stages was the possibility that leaky expression of uboA would affect the frequency of active mutants prior to IPTG induction. Indeed, we observed that the frequency of some uboA mutants dropped as soon as they were transformed into the screening strain MC1061 while the frequency of other mutants climbed (Figure 2B).
The behavior of the point variants (i.e., variants with a single aa substitution) was examined by calculating their enrichment values, the base-2 logarithm of the ratio of the variant’s frequency at a specific step of the screen to the variant’s frequency in the cloning transformation library (eq S3, Figure S6). The most relevant enrichment value for ubonodin activity is the comparison between the post-IPTG library and the cloning transformation library (Figure 2A). […] Many variants inhibit RNAP so strongly that they cannot be detected by NGS after IPTG induction (referred to as dropout variants). […] Variants with a stop codon mutation and variants containing an aa substitution at Tyr9 or Tyr27 (positions conserved in MccJ25 and shown to be crucial for RNAP inhibition, see Figure S7)[26] have positive enrichment values (1.2–1.7), serving as quality control for the screen (Figure 3A). Strikingly, 63% of point variants decreased in frequency, indicating a high tolerance to aa substitution. […] The positions with active variants are Asn11 through Ser24 in the loop and Asp3, Ser5, and Ala7 in the ring.
The single mutant and double mutant libraries were transformed into E. coli MC1061. Colonies were resuspended in media and subcultured into a larger culture. Aliquots of the cultures were sampled prior to and after induction with 10 μM IPTG and 100 μM IPTG and plated. After 16 h of incubation, the colonies were resuspended in media and plasmids were miniprepped.
Samples were PCR amplified with barcoded primers and combined such that double mutant library samples were over-represented compared to single mutant library samples to provide sufficient coverage of the larger double mutant library. Samples were sequenced using an Illumina MiSeq Micro 300nt and an Illumina NovaSeq 6000 Sequencing System. Downstream analysis of the data was conducted with Python, MATLAB, and R.
V to reduce genomic DNA contamination. One fragment was amplified with Xho I For Lib and a […]

E. coli MC1061 = test: Spot dilution assay of E. coli producing the ubonodin variant from pUboABC; type: cell-based; conditions: variant in pUboABC backbone in E. coli MC1061, induction with 100 μM IPTG, ten-fold serial dilutions, biological duplicates
Experimental: Cultures of E. coli MC1061 transformed with the appropriate plasmids were grown. Aliquots of the cultures were sampled prior to and after induction with 100 μM IPTG, and 10-fold serial dilutions were plated. […]
All cloning was conducted by PCR amplification (using Q5 polymerase), restriction digestion, ligation, (using T4 DNA ligase), and transformation into chemically competent E. coli XL1-Blue. All cloning with a pUboABC backbone was done by plating transformation mixt ures onto Lysogeny Broth (LB) plates supplemented with 100 μg/mL ampicillin and 0.2% w/v glucose, and colonies were inoculated into LB media supplemented with 100 μ g/mL ampicillin and 0.2% w/v glucose to suppress any leaky expression. Cloning for all other plasmid constructs was done by plating transformation mixtures onto Lysogeny Broth (LB) plates supplemented with 100 μ g/ m L ampicillin, and colonies were inoculated into LB media supplemented with 100 μ g/ m L ampicillin.
Plasmids were extracted using Qiagen QIAprep Spin Miniprep Kit and sequence verified using Sanger sequencing. All primer sequences are listed in Table S7, and all plasmid constructs are […]
pUboABC was cloned by amplifying pWC99 with pQE-80 NheI For and pAT8 Nco I Rev.
The amplicon was ligated into pWC99 digested with Nhe I and Nco I. pUboBC was cloned by digesting pUboABC with Nh e I and Nco I and ligating that fragment into pQE-80 digested with Nhe I and Nco I. pUboABC S5H I16P and pUboABCD S5H I16P were cloned with overlap PCR using pWC99 as the template. One fragment was amplified with pQE-80 EcoRI For and S5H I16P Rev v2 and the second fragment was amplified with S5H I16P For v2 and pQE-80 HindII I Rev. […]
All remaining plasmid constructs were cloned with overlap PCR. One fragment was amplified with Xho I For Lib and a mutagenic reverse primer and the second fragment was amplified with NheI Rev Lib and a mutagenic forward primer. The templates and mutagenic […]
The fragments were joined with a second round of PCR and amplified with XhoI For Lib and NheI Rev Lib. Amplicons were ligated into the appropriate plasmid backbone digested with Xho I and Nhe I-HF. The plasmid backbones […]
The appropriate plasmid was transformed into electrocompetent E. coli MC1061, plated onto LB plates supplemented with 100 μ g/ m L ampicillin and 0.2% w/v glucose, and incubated at 30 °C for 16 hours. Colonies were inoculated into LB media supplemented with 100 μ g/ m L ampicillin and 0.2% w/v glucose and grown at 37 °C for 16 hours. These cultures were sub-cultured to an OD600 of 0.02 in 50 mL of LB media supplemented with 100 μg/mL ampicillin in a 250 mL flask. Once the OD600 reached 0.3, a 1 mL aliquot was sampled immediately prior to inducing the cultures with 100 μM isopropyl β-D-1-thiogalactopyranoside (IPTG). The aliquot was washed with Phosphate-Buffered Saline (PBS) two times and ten-fold serial dilutions were spotted onto LB plates supplemented with 100 μ g/ m L ampicillin and 0.2% w/v glucose. For each following timepoint, a 1 mL sample of each culture was withdrawn, washed with PBS two times, and ten- […]
fold serial dilutions were spotted onto LB plates supplemented with 100 μ g/m L ampicillin and 0.2% w/v glucose. Plates were incubated for 16 hours at 37 °C before imaging. […]
250 mL flask. Ten-fold serial dilutions of the culture were plated onto LB plates supplemented with 100 μ g/ m L ampicillin and 0.2% w/v glucose. The cultures were then grown at 37 °C, and once the OD600 reached 0.3, a 1 mL sample of the culture was withdrawn immediately before the cultures were induced with 10 μM or 100 μM IPTG and returned to grow longer. […]
All plates were incubated at 37 °C for 16 hours, after which the number of colonies was counted. Three biological replicates of this assay were done.
Co-Culture of E. coli MC1061 pUboABC and E. coli MC1061 pUboBC pUboABC (0.9 ng) and pUboBC (0.1 ng) were transformed into electrocompetent E. coli MC1061 with a one- hour outgrowth at 37 °C in LB media supplemented with 0.2% w/v glucose. […]

Compound | B. cenocepacia AU0756 MIC (B. cenocepacia AU0756) [µM] | Experimental observation (enrichment observed in the screen) [1] | Inhibits Growth (E. coli MC1061)
CC[C@H](C)[C@@H]1NC(=O)[C@H](CO)NC(=O)CNC(=O)[C@H](CC(=O)O)NC(=O)CNC(=O)CNC(=O)CC[C@@H](C(=O)N[C@@H](Cc2ccc(O)cc2)C(=O)N[C@@H](Cc2ccccc2)C(=O)N[C@@H](CC(N)=O)C(=O)N[C@@H](CCCNC(=N)N)C(=O)N2CCC[C@H]2C(=O)N[C@@H](CCSC)C(=O)N[C@@H](Cc2c[nH]cn2)C(=O)N[C@@H](CCC(=O)O)C(=O)N[C@@H](Cc2c[nH]cn2)C(=O)N[C@@H](CC(=O)O)C(=O)N[C@@H](Cc2c[nH]c3ccccc23)C(=O)N[C@@H](CCC(N)=O)C(=O)N[C@H](C(=O)N[C@@H](CCSC)C(=O)N[C@@H](CC(=O)O)C(=O)N[C@@H](CO)C(=O)NCC(=O)N[C@@H](Cc2ccc(O)cc2)C(=O)N[C@@H](Cc2ccc(O)cc2)C(=O)NCC(=O)O)[C@@H](C)CC)NC(=O)[C@H](C)NC1=O [I16E] (HELM PEPTIDE1{G.G.D.G.S.I.A.E.Y.F.N.R.P.M.H.E.H.D.W.Q.I.M.D.S.G.Y.Y.G}$PEPTIDE1,PEPTIDE1,1:R1-8:R3$$$V2.0) | 0.5 to 1 | -7.5 | Yes
CC[C@H](C)[C@H](NC(=O)[C@H](CCC(N)=O)NC(=O)[C@H](Cc1c[nH]c2ccccc12)NC(=O)[C@H](CC(=O)O)NC(=O)[C@H](Cc1c[nH]cn1)NC(=O)[C@@H](NC(=O)[C@H](Cc1c[nH]cn1)NC(=O)[C@H](CCSC)NC(=O)[C@@H]1CCCN1C(=O)[C@H](CCCNC(=N)N)NC(=O)[C@H](CC(N)=O)NC(=O)[C@H](Cc1ccccc1)NC(=O)[C@H](Cc1ccc(O)cc1)NC(=O)[C@@H]1CCC(=O)NCC(=O)NCC(=O)N[C@@H](CC(=O)O)C(=O)NCC(=O)N[C@@H](CO)C(=O)N[C@@H]([C@@H](C)CC)C(=O)N2CCC[C@H]2C(=O)N1)[C@@H](C)CC)C(=O)N[C@@H](CCSC)C(=O)N[C@@H](CC(=O)O)C(=O)N[C@@H](CO)C(=O)NCC(=O)N[C@@H](Cc1ccc(O)cc1)C(=O)N[C@@H](Cc1ccc(O)cc1)C(=O)NCC(=O)O [A7P] (HELM PEPTIDE1{G.G.D.G.S.I.P.E.Y.F.N.R.P.M.H.I.H.D.W.Q.I.M.D.S.G.Y.Y.G}$PEPTIDE1,PEPTIDE1,1:R1-8:R3$$$V2.0; C-terminus assumed) | 2 | -3.4 | Yes
CC[C@H](C)[C@H](NC(=O)[C@H](CCC(N)=O)NC(=O)[C@H](Cc1c[nH]c2ccccc12)NC(=O)[C@H](CC(=O)O)NC(=O)[C@H](Cc1c[nH]cn1)NC(=O)[C@H](C)NC(=O)[C@H](Cc1c[nH]cn1)NC(=O)[C@H](CCSC)NC(=O)[C@@H]1CCCN1C(=O)[C@H](CCCNC(=N)N)NC(=O)[C@H](CC(N)=O)NC(=O)[C@H](Cc1ccccc1)NC(=O)[C@H](Cc1ccc(O)cc1)NC(=O)[C@@H]1CCC(=O)NCC(=O)NCC(=O)N[C@@H](CC(=O)O)C(=O)NCC(=O)N[C@@H](CO)C(=O)N[C@@H]([C@@H](C)CC)C(=O)N2CCC[C@H]2C(=O)N1)C(=O)N[C@@H](CCSC)C(=O)N[C@@H](CC(=O)O)C(=O)N[C@@H](CO)C(=O)NCC(=O)N[C@@H](Cc1ccc(O)cc1)C(=O)N[C@@H](Cc1ccc(O)cc1)C(=O)NCC(=O)O [A7P I16A] (HELM PEPTIDE1{G.G.D.G.S.I.P.E.Y.F.N.R.P.M.H.A.H.D.W.Q.I.M.D.S.G.Y.Y.G}$PEPTIDE1,PEPTIDE1,1:R1-8:R3$$$V2.0) | 4 to 8 | Dropout | Yes

— article PMC10037499, “High-Throughput Screen Reveals the Structure–Activity Relationship of the Antimicrobial Lasso Peptide Ubonodin” (ACS Central Science, 2023)
